Results on 3 molecules are retold here after patent publication US10294275B2, “Site-selective functionalization of glycopeptide antibiotics” (Yale University, priority 2012, dated 2019).

Values after ≈ are worked out from the molar mass of the structure shown.

The test system of test [1] is methicillin-susceptible S. aureus, ATCC 29213. Kind of test: Minimum inhibitory concentration against MSSA. It is filed as cell-based. The following applies: for MIC, MSSA: methicillin-susceptible S. aureus, ATCC 29213. The source says:
(§1) The chemistry described above enabled direct synthesis of eleven previously unknown analogs of 3. The minimum inhibitory concentrations (MICs) for the new analogs as antibacterial agents as determined.

Test [2] concerns methicillin-resistant S. aureus, ATCC 43300. Nature of the test: Minimum inhibitory concentration against MRSA. The format is cell-based. The following applies: for MIC, MRSA: methicillin-resistant S. aureus, ATCC 43300.
Description: as §1

Test [3] concerns vancomycin-resistant enterococci (VanB), ATCC 51299. Nature of the test: Minimum inhibitory concentration against VRE (VanB). The following applies: for MIC, VRE (VanB): vancomycin-resistant enterococci, ATCC 51299. It is filed as cell-based.
Description: as §1

Test [4] relates to vancomycin-susceptible enterococci, ATCC 29212. Nature of the test: Minimum inhibitory concentration against VSE. It is filed as cell-based. As to conditions: for MIC, VSE: vancomycin-susceptible enterococci, ATCC 29212.
Description: as §1

The test system of test [5] is vancomycin-resistant enterococci (VanA), MMX 486. Kind of test: Minimum inhibitory concentration against VRE (VanA). The format is cell-based. The following applies: for MIC, VRE (VanA): MMX 486, vancomycin and teicoplanin resistant.
Description: as §1

The next test concerns Staphylococcus aureus. As to conditions: cited from earlier work.

A word on the MIC: it is the lowest concentration found to suppress growth.

For the molecule `CC(=O)N[C@H]1[C@H](O[C@@H]2c3ccc(c(Cl)c3)Oc3cc4cc(c3O[C@@H]3O[C@H](CO)[C@@H](O)[C@H](O)[C@H]3NC(=O)CCCCCCC(C)C)Oc3ccc(cc3Cl)C[C@H]3NC(=O)[C@H](N)c5ccc(O)c(c5)Oc5cc(O)cc(c5)[C@H](NC3=O)C(=O)N[C@H]4C(=O)N[C@H]3C(=O)N[C@@H]2C(=O)N[C@H](C(=O)O)c2cc(O)cc(O[C@H]4O[C@H](CO)[C@@H](O)[C@H](O)[C@@H]4O)c2-c2cc3ccc2O)O[C@H](CO)[C@@H](O)[C@@H]1O` [Teicoplanin A2-2, reference compound], the “MIC, MSSA” value in test [1] was 0.5 µg/mL (≈ 0.266 µM). Further, the “MIC, MRSA” value in test [2] turned out to be 0.5 µg/mL (≈ 0.266 µM). In test [3], the “MIC, VRE (VanB)” value was 0.25 µg/mL (≈ 0.133 µM). The “MIC, VSE” value in test [4] is 0.25 µg/mL (≈ 0.133 µM). The “MIC, VRE (VanA)” value in test [5] is greater than 64 µg/mL.

Regarding `CN[C@H](CC(C)C)C(=O)N[C@H]1C(=O)N[C@@H](CC(N)=O)C(=O)N[C@H]2C(=O)N[C@H]3C(=O)N[C@H](C(=O)N[C@H](C(=O)O)c4cc(O)cc(O)c4-c4cc3ccc4O)[C@H](O)c3ccc(c(Cl)c3)Oc3cc2cc(c3O[C@@H]2O[C@H](CO)[C@@H](O)[C@H](O)[C@H]2O[C@H]2C[C@](C)(N)[C@H](O)[C@H](C)O2)Oc2ccc(cc2Cl)[C@H]1O` [Vancomycin, vancomycin, reference compound], in the test on Staphylococcus aureus, the “in vitro MIC against Staphylococcus aureus” value is 0.25 to 10 µg/mL. Further, the MIC is 0.5 µg/mL (≈ 0.345 µM) in test [1] (Staphylococcus aureus, read-out: MIC, MSSA); 1 µg/mL (≈ 0.69 µM) in test [2] (Staphylococcus aureus, read-out: MIC, MRSA); 16 µg/mL (≈ 11 µM) in test [3] (Enterococcus, read-out: MIC, VRE (VanB)); 2 µg/mL (≈ 1.38 µM) in test [4] (read-out: MIC, VSE); greater than 64 µg/mL in test [5] (Enterococcus, VRE, read-out: MIC, VRE (VanA)).

Regarding teicoplanin [reference compound], in test [1], the “MIC, MSSA” value was 0.5 µg/mL. The “MIC, MRSA” value in test [2] worked out at 0.5 µg/mL. Further, the “MIC, VRE (VanB)” value in test [3] is 0.25 µg/mL. Besides, in test [4], the “MIC, VSE” value came out at 0.25 µg/mL. Further, the “MIC, VRE (VanA)” value in test [5] was greater than 64 µg/mL.
